Measurements as given in PubChem BioAssay AID330 (DTP/NCI, 2004).
Several values for one entry are separate records, joined by “and”; a condition that tells them apart may be missing. Equal values may be shown once. Inconclusive results and toxic doses are left out.

Test system: P388 leukemia ip, CD2F1 mice, survival T/C
Assay: NCI In Vivo Anticancer Drug Screen. Data for tumor model P388 Leukemia (intraperitoneal) in CD2F1 (CDF1) mice
Conditions: endpoint: median survival time, higher = longer survival
Method in brief: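 Mice carrying the transplanted tumor received test compound or vehicle. Survival was recorded in each group, and the value is the treated-group measurement divided by that of the vehicle-treated control group.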

[1] = dose: 50.0 mg/kg/injection, schedule: Q01DX005 (ip), vehicle: Klucel (hydroxypropylcellulose) (HPC)
[2] = dose: 100.0 mg/kg/injection, schedule: Q01DX005 (ip), vehicle: Klucel (hydroxypropylcellulose) (HPC)
[3] = dose: 200.0 mg/kg/injection, schedule: Q01DX005 (ip), vehicle: Klucel (hydroxypropylcellulose) (HPC)
[4] = dose: 50.0 mg/kg/injection, schedule: Q01DX005 (ip), vehicle: saline with Tween-80
[5] = dose: 100.0 mg/kg/injection, schedule: Q01DX005 (ip), vehicle: saline with Tween-80
[6] = dose: 200.0 mg/kg/injection, schedule: Q01DX005 (ip), vehicle: saline with Tween-80
[7] = dose: 12.5 mg/kg/injection, schedule: Q01DX009 (ip), vehicle: saline with Tween-80
[8] = dose: 25.0 mg/kg/injection, schedule: Q01DX009 (ip), vehicle: saline with Tween-80
[9] = dose: 50.0 mg/kg/injection, schedule: Q01DX009 (ip), vehicle: saline with Tween-80
[10] = dose: 50.0 mg/kg/injection, schedule: Q01DX009 (ip), vehicle: saline

For `C[CH2][Sn]([F])([CH2]C)[CH2]C`, the T/C (dose: 0.37 mg/kg/injection, schedule: Q01DX009 (ip), vehicle: saline with Tween-80) was 90 % of control, the T/C (dose: 0.38 mg/kg/injection, schedule: Q01DX009 (ip), vehicle: Klucel (hydroxypropylcellulose) (HPC)) was 101 % of control and 96 % of control and the T/C (dose: 0.75 mg/kg/injection, schedule: Q01DX009 (ip), vehicle: Klucel (hydroxypropylcellulose) (HPC)) was 104 % of control and 108 % of control and 96 % of control. The T/C (dose: 0.75 mg/kg/injection, schedule: Q01DX009 (ip), vehicle: saline with Tween-80) was 105 % of control, the T/C (dose: 1.5 mg/kg/injection, schedule: Q01DX009 (ip), vehicle: Klucel (hydroxypropylcellulose) (HPC)) was 102 % of control and 103 % of control and 114 % of control and the T/C (dose: 1.5 mg/kg/injection, schedule: Q01DX009 (ip), vehicle: saline with Tween-80) was 100 % of control. For the same compound, the T/C (dose: 3.0 mg/kg/injection, schedule: Q01DX009 (ip), vehicle: Klucel (hydroxypropylcellulose) (HPC)) was 109 % of control and 116 % of control.
`C=C1C(C)C2C(Cc3ccccc3)NC(=O)C23C(OC(C)=O)C=CC(C)(O)C(=O)C(C)C/C=C/C3C1O` (centres undefined) was tested, and the T/C (dose: 0.62 mg/kg/injection, schedule: Q01DX009 (ip), vehicle: Klucel (hydroxypropylcellulose) (HPC)) was 107 % of control, the T/C (dose: 0.63 mg/kg/injection, schedule: Q01DX009 (ip), vehicle: Klucel (hydroxypropylcellulose) (HPC)) was 107 % of control and the T/C (dose: 1.25 mg/kg/injection, schedule: Q01DX009 (ip), vehicle: Klucel (hydroxypropylcellulose) (HPC)) was 107 % of control and 97 % of control. For the same compound, the T/C (dose: 2.5 mg/kg/injection, schedule: Q01DX009 (ip), vehicle: Klucel (hydroxypropylcellulose) (HPC)) was 107 % of control and 120 % of control and the T/C (dose: 5.0 mg/kg/injection, schedule: Q01DX009 (ip), vehicle: Klucel (hydroxypropylcellulose) (HPC)) was 100 % of control and 103 % of control.
For `COc1cc2c(cc1OC)CC(=O)OC2`, the T/C [1] was 105 % of control, the T/C [2] was 102 % of control and the T/C [3] was 103 % of control.
`CC(=O)NC(CCSSCCC(NC(C)=O)C(=O)ON1C(=O)CCC1=O)C(=O)ON1C(=O)CCC1=O` (centres undefined) was tested, and the T/C [4] was 104 % of control, the T/C [5] was 105 % of control and the T/C [6] was 104 % of control.
With `c1nc2c3c4c(sc3ncn2n1)CCCC4` the T/C [1] was 98 % of control, the T/C [2] was 106 % of control and the T/C [3] was 91 % of control.
`NC1=C(O)C(=O)C(c2ccc3c(c2)CCC3)O1` (centres undefined) was tested, and the T/C (dose: 60.0 mg/kg/injection, schedule: Q01DX005 (ip), vehicle: Klucel (hydroxypropylcellulose) (HPC)) was 91 % of control and the T/C (dose: 120.0 mg/kg/injection, schedule: Q01DX005 (ip), vehicle: Klucel (hydroxypropylcellulose) (HPC)) was 87 % of control.
`COc1ccc(Cc2cc3c(cc2OCC(=O)Nc2ncccn2)OCO3)cc1` was tested, and the T/C [4] was 108 % of control, the T/C [5] was 88 % of control and the T/C [6] was 87 % of control.
`O=C(O)c1c(CS(F)(F)(F)(F)F)cc(=O)oc1CS(F)(F)(F)(F)F` was tested, and the T/C [4] was 106 % of control and the T/C [5] was 105 % of control.
With `c1ccc(ON=C2c3ccccc3-c3ccccc32)cc1` the T/C (dose: 75.0 mg/kg/injection, schedule: Q04DX003 (ip), vehicle: saline) was 113 % of control, the T/C (dose: 125.0 mg/kg/injection, schedule: Q04DX003 (ip), vehicle: saline) was 109 % of control and the T/C (dose: 250.0 mg/kg/injection, schedule: Q04DX003 (ip), vehicle: saline) was 104 % of control.
For `CCCCn1c(C)nc2c(cnn2C)c1=O`, the T/C [1] was 114 % of control, the T/C [2] was 101 % of control and the T/C [3] was 108 % of control.
For `CCCCCCCCCCCCCCCC(=O)NC1CC(OC2CC(O)(C(C)=O)Cc3c(O)c4c(c(O)c32)C(=O)c2c(OC)cccc2C4=O)OC(C)C1O` (centres undefined), the T/C (dose: 0.75 mg/kg/injection, schedule: Q01DX009 (ip), vehicle: other) was 111 % of control, the T/C (dose: 1.5 mg/kg/injection, schedule: Q01DX009 (ip), vehicle: other) was 98 % of control and the T/C (dose: 3.0 mg/kg/injection, schedule: Q01DX009 (ip), vehicle: other) was 113 % of control.
For `O=[N+]([O-])c1ccc(OS(=O)(=O)/C=C/c2ccccc2)cc1`, the T/C (dose: 100.0 mg/kg/injection, schedule: Q01DX001 (ip), vehicle: Klucel (hydroxypropylcellulose) (HPC)) was 99 % of control, the T/C (dose: 200.0 mg/kg/injection, schedule: Q01DX001 (ip), vehicle: Klucel (hydroxypropylcellulose) (HPC)) was 100 % of control and the T/C (dose: 400.0 mg/kg/injection, schedule: Q01DX001 (ip), vehicle: Klucel (hydroxypropylcellulose) (HPC)) was 94 % of control.
`CCCCCCCCCCCCN(C)C` was tested, and the T/C [7] was 100 % of control, the T/C [8] was 100 % of control and the T/C [9] was 100 % of control.
For `CCOC(=O)c1ccc(N=Cc2cccs2)cc1`, the T/C [10] was 88 % of control, the T/C (dose: 100.0 mg/kg/injection, schedule: Q01DX009 (ip), vehicle: saline) was 92 % of control and the T/C (dose: 200.0 mg/kg/injection, schedule: Q01DX009 (ip), vehicle: saline) was 102 % of control.
For `O=N[O-].O=N[O-].[Co].[NH-]CC[N-]CCO.[NH-]CC[N-]CCO`, the T/C (dose: 6.25 mg/kg/injection, schedule: Q01DX009 (ip), vehicle: saline) was 95 % of control, the T/C (dose: 12.5 mg/kg/injection, schedule: Q01DX009 (ip), vehicle: saline) was 99 % of control and the T/C (dose: 25.0 mg/kg/injection, schedule: Q01DX009 (ip), vehicle: saline) was 94 % of control. For the same compound, the T/C [10] was 95 % of control.
In the case of `OCCCC1CCCCN1` (centres undefined), the T/C (dose: 50.0 mg/kg/injection, schedule: Q01DX001 (ip), vehicle: saline) is reported as 107 % of control and the T/C (dose: 200.0 mg/kg/injection, schedule: Q01DX001 (ip), vehicle: saline) is reported as 100 % of control.
With `OC(CCl)CN1CCN(CC(O)CCl)CC1` (centres undefined) the T/C (dose: 25.0 mg/kg/injection, schedule: Q01DX005 (ip), vehicle: water) was 150 % of control and the T/C (dose: 100.0 mg/kg/injection, schedule: Q01DX005 (ip), vehicle: water) was 90 % of control and 92 % of control.
In the case of `CC(NNC(=S)N1CC2CCC(CC2)C1)c1cc2ccccc2cn1` (centres undefined), the T/C [4] is reported as 114 % of control, the T/C [5] is reported as 112 % of control and the T/C [6] is reported as 121 % of control.
For `OCC1CSCN1` (centres undefined), the T/C (dose: 50.0 mg/kg/injection, schedule: Q04DX002 (ip), vehicle: saline) was 93 % of control, the T/C (dose: 100.0 mg/kg/injection, schedule: Q04DX002 (ip), vehicle: saline) was 99 % of control and 101 % of control and the T/C (dose: 200.0 mg/kg/injection, schedule: Q04DX002 (ip), vehicle: saline) was 101 % of control and 120 % of control. For the same compound, the T/C (dose: 400.0 mg/kg/injection, schedule: Q04DX002 (ip), vehicle: saline) was 101 % of control and 104 % of control.
In the case of `O=c1[nH]c2cc(Cl)ccc2nc1/C=C(\O)c1ccc(N2CCN(c3ccc(/C(O)=C/c4nc5ccc(Cl)cc5[nH]c4=O)cc3)CC2)cc1`, the T/C (dose: 60.0 mg/kg/injection, schedule: Q01DX005 (ip), vehicle: Klucel + Tween-80) is reported as 98 % of control, the T/C (dose: 120.0 mg/kg/injection, schedule: Q01DX005 (ip), vehicle: Klucel + Tween-80) is reported as 93 % of control and the T/C (dose: 240.0 mg/kg/injection, schedule: Q01DX005 (ip), vehicle: Klucel + Tween-80) is reported as 86 % of control.
For `N#CCSCC(=O)c1ccccc1`, the T/C [4] was 105 % of control, the T/C [5] was 105 % of control and the T/C [6] was 112 % of control.
In the case of `O=C(c1ccccc1)N(C(=O)c1ccccc1)c1ccccn1`, the T/C [7] is reported as 103 % of control, the T/C [8] is reported as 106 % of control and the T/C [9] is reported as 112 % of control. The T/C (dose: 100.0 mg/kg/injection, schedule: Q01DX009 (ip), vehicle: saline with Tween-80) was 87 % of control, the T/C (dose: 200.0 mg/kg/injection, schedule: Q01DX009 (ip), vehicle: saline with Tween-80) was 86 % of control and the T/C (dose: 400.0 mg/kg/injection, schedule: Q01DX009 (ip), vehicle: saline with Tween-80) was 93 % of control.
For `Nc1nnc(-c2ccccc2)nn1`, the T/C (dose: 50.0 mg/kg/injection, schedule: Q01DX005 (ip), vehicle: Klucel + Tween-80) was 91 % of control, the T/C (dose: 100.0 mg/kg/injection, schedule: Q01DX005 (ip), vehicle: Klucel + Tween-80) was 95 % of control and the T/C (dose: 200.0 mg/kg/injection, schedule: Q01DX005 (ip), vehicle: Klucel + Tween-80) was 100 % of control.
`CCCCCCCCCCCCCCCCCCCCC(C(=O)OCC)S(=O)(=O)O` (centres undefined) was tested, and the T/C (dose: 50.0 mg/kg/injection, schedule: Q01DX009 (ip), vehicle: Klucel (hydroxypropylcellulose) (HPC)) was 116 % of control and the T/C (dose: 100.0 mg/kg/injection, schedule: Q01DX009 (ip), vehicle: Klucel (hydroxypropylcellulose) (HPC)) was 111 % of control.
With `O=C(NC(Cc1c[nH]c2ccccc12)C(=O)O)C(=O)c1c[nH]c2ccccc12` (centres undefined) the T/C (dose: 60.0 mg/kg/injection, schedule: Q01DX005 (ip), vehicle: saline with Tween-80) was 100 % of control, the T/C (dose: 120.0 mg/kg/injection, schedule: Q01DX005 (ip), vehicle: saline with Tween-80) was 97 % of control and the T/C (dose: 240.0 mg/kg/injection, schedule: Q01DX005 (ip), vehicle: saline with Tween-80) was 90 % of control.
With `C[N+](C)(C)CCCOC1=Nc2ccccc2O/C1=C/c1ccccc1` the T/C (dose: 3.12 mg/kg/injection, schedule: Q01DX009 (ip), vehicle: Klucel (hydroxypropylcellulose) (HPC)) was 96 % of control, the T/C (dose: 6.25 mg/kg/injection, schedule: Q01DX009 (ip), vehicle: Klucel (hydroxypropylcellulose) (HPC)) was 92 % of control and the T/C (dose: 12.5 mg/kg/injection, schedule: Q01DX009 (ip), vehicle: Klucel (hydroxypropylcellulose) (HPC)) was 98 % of control and 104 % of control.
